According to US11753446B2, “Beta-hairpin peptidomimetics” (POLYPHOR AG, priority 2014, dated 2023):
Like-named read-outs stand apart in the source and are kept apart here. Where a SMILES comes first, the peptide text is derived from it. Bridges are numbered along the chain shown (N, C = ends). [ ]: non-standard residue; d: D form. Tle = CC(C)(C)[C@H](N)C(=O)O; dDab = NCC[C@@H](N)C(=O)O; Orn = NCCC[C@H](N)C(=O)O; Dab = NCC[C@H](N)C(=O)O; Dap = NC[C@H](N)C(=O)O

Tests used:
[1] = tested on: Acinetobacter baumannii DSM 30008; assay type: cell-based
Method in brief: (§1)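 Peptide MICs were determined by NCCLS broth microdilution in cation-adjusted Mueller-Hinton II broth. Inoculum was about 10^6 CFU/mL, matched to 0.5 McFarland, with peptides in two-fold serial dilutions. The broth contained Polysorbate 80 at 0.002% final concentration.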

[2] = tested on: Escherichia coli ATCC 25922; assay type: cell-based
Method in brief: as §1

[3] = tested on: Klebsiella pneumoniae ATCC 13883; assay type: cell-based
Method in brief: as §1

[4] = tested on: human red blood cells (hRBC); assay: Hemolysis: hemolytic activity at 100 μg/mL, 1 h at 37° C.
Method in brief: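 Peptides at 100 μg/mL incubated with washed 20% (v/v) human erythrocytes (~0.9×10^9 cells/mL) for 1 h at 37 °C with shaking. Released hemoglobin read at OD 540 nm in supernatant; 0% and 100% lysis from PBS/0.001% acetic acid and 2.5% Triton X-100.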

[5] = Mueller-Hinton II broth, 18-20 hours at 35° C.

Acinetobacter baumannii DSM 30008 MIC ([1]; DSM 30008) [µg/mL]	Escherichia coli ATCC 25922 MIC ([2]; ATCC 25922) [µg/mL]	Klebsiella pneumoniae ATCC 13883 MIC ([3]; ATCC 13883) [µg/mL]	SMILES	Hemolysis at 100 μg/mL ([4]; red cells of human, 1 h, 100) [%]	Acinetobacter baumannii DSM 30008 MIC [1, 5] [µg/mL]	Escherichia coli ATCC 25922 MIC [2, 5] [µg/mL]	Klebsiella pneumoniae ATCC 13883 MIC [3, 5] [µg/mL]	Hemolysis at 100 μg/mL ([4]; 100 μg/mL, 20% hRBC, 1 h at 37° C.) [%]
1	0.5	0.5	CC(C)[C@@H]1NC(=O)[C@@H]2CCCN2C(=O)[C@@H]([C@H](C)O)NC(=O)[C@H]([C@@H](C)O)NC(=O)[C@@H]2CC(=O)NCC[C@H](NC1=O)C(=O)N[C@@H](Cc1ccc(O)cc1)C(=O)N[C@@H](CCN)C(=O)N[C@@H](CN)C(=O)N[C@H](CCN)C(=O)N[C@@H](CCN)C(=O)N[C@@H](Cc1c[nH]c3ccccc13)C(=O)N[C@@H](CCN)C(=O)N[C@@H](C(C)(C)C)C(=O)N2 [Example 29, cyclo(-Val-Dab-Tyr-Dab-Dap-^DDab-Dab-Trp-Dab-tBuGly-Asp-Thr-^DThr-Pro-)] (cyclo(V[Dab]Y[Dab][Dap][dDab][Dab]W[Dab][Tle]DT[dT]P); lactam 2-11)	2				
1.5	1.5	1	CC(C)C[C@@H]1NC(=O)[C@H](CCCNC(=N)N)NC(=O)[C@@H](CCN)NC(=O)[C@H]([C@@H](C)O)NC(=O)[C@@H]2CCNC(=O)C[C@H](NC1=O)C(=O)N[C@@H](Cc1ccc(O)cc1)C(=O)N[C@@H](CC(N)=O)C(=O)N[C@@H](CCCN)C(=O)N[C@H](CCN)C(=O)N[C@@H](CCN)C(=O)N[C@@H](Cc1c[nH]c3ccccc13)C(=O)N[C@@H](CO)C(=O)N[C@@H](C(C)(C)C)C(=O)N2 [Example 75, cyclo(-Leu-Asp-Tyr-Asn-Orn-^DDab-Dab-Trp-Ser-tBuGly-Dab-Thr-^DDab-Arg-)] (cyclo(LDYN[Orn][dDab][Dab]WS[Tle][Dab]T[dDab]R); lactam 2-11)	1				
1.5	1.5	1	CC(C)C[C@@H]1NC(=O)[C@H](CCCNC(=N)N)NC(=O)[C@@H](CCN)NC(=O)[C@H](C)NC(=O)[C@@H]2CSSC[C@H](NC1=O)C(=O)N[C@@H](Cc1ccc(O)cc1)C(=O)N[C@@H](CC(N)=O)C(=O)N[C@@H](CCCN)C(=O)N[C@H](CCN)C(=O)N[C@@H](CCN)C(=O)N[C@@H](Cc1c[nH]c3ccccc13)C(=O)N[C@@H](CO)C(=O)N[C@@H](Cc1ccc(O)cc1)C(=O)N2 [Example 71, cyclo(-Leu-Cys-Tyr-Asn-Orn-^DDab-Dab-Trp-Ser-Tyr-Cys-Ala-^DDab-Arg-)] (HELM PEPTIDE1{A.[NCC[C@@H](N[*:1])C(=O)[*:2]].R.L.C.Y.N.[Orn].[NCC[C@@H](N[*:1])C(=O)[*:2]].[Dab].W.S.Y.C}$PEPTIDE1,PEPTIDE1,5:R3-14:R3|PEPTIDE1,PEPTIDE1,1:R1-14:R2$$$V2.0)	1				
4	1	1	CC(C)[C@@H]1NC(=O)[C@H](Cc2ccc(O)cc2)NC(=O)[C@@H](C)NC(=O)[C@H](CO)NC(=O)[C@@H]2CC(=O)NCC[C@H](NC1=O)C(=O)N[C@@H](Cc1ccc(O)cc1)C(=O)N[C@@H](CCN)C(=O)N[C@@H](CN)C(=O)N[C@H](CCN)C(=O)N[C@@H](CCN)C(=O)N[C@@H](Cc1c[nH]c3ccccc13)C(=O)N[C@@H](CN)C(=O)N[C@@H](C(C)(C)C)C(=O)N2 [Example 31, cyclo(-Val-Dab-Tyr-Dab-Dap-^DDab-Dab-Trp-Dap-tBuGly-Asp-Ser-^DAla-Tyr-)] (cyclo(DS[dA]YV[Dab]Y[Dab][Dap][dDab][Dab]W[Dap][Tle]); lactam 1-6)	1				
			CC(C)[C@@H]1NC(=O)[C@@H]2CSSC[C@H](NC(=O)[C@H](Cc3ccc(O)cc3)NC(=O)[C@H]([C@@H](C)O)NC(=O)[C@H](Cc3c[nH]c4ccccc34)NC(=O)[C@H](CCN)NC(=O)[C@@H](CCN)NC(=O)[C@H](CCCN)NC(=O)[C@H]([C@@H](C)O)NC1=O)C(=O)N[C@@H](CCN)C(=O)N[C@H](CCN)C(=O)N[C@@H](CCCNC(=N)N)C(=O)N[C@@H](Cc1ccccc1)C(=O)N2 [Example 24, cyclo(-Phe-Cys-Val-Thr-Orn-^DDab-Dab-Trp-Thr-Tyr-Cys-Dab-^DDab-Arg-)] (HELM PEPTIDE1{C.[Dab].[NCC[C@@H](N[*:1])C(=O)[*:2]].R.F.C.V.T.[Orn].[NCC[C@@H](N[*:1])C(=O)[*:2]].[Dab].W.T.Y}$PEPTIDE1,PEPTIDE1,1:R3-6:R3|PEPTIDE1,PEPTIDE1,1:R1-14:R2$$$V2.0)		2	1	2	0
8	1	2	CC(C)[C@@H]1NC(=O)[C@H](C)NC(=O)[C@@H](C)NC(=O)[C@H](CO)NC(=O)[C@@H]2CC(=O)NCC[C@H](NC1=O)C(=O)N[C@@H](Cc1ccc(O)cc1)C(=O)N[C@@H](CCN)C(=O)N[C@@H](CCN)C(=O)N[C@H](CCN)C(=O)N[C@@H](CCN)C(=O)N[C@@H](Cc1c[nH]c3ccccc13)C(=O)N[C@@H](CCN)C(=O)N[C@@H](C(C)(C)C)C(=O)N2 [Example 30, cyclo(-Val-Dab-Tyr-Dab-Dab-^DDab-Dab-Trp-Dab-tBuGly-Asp-Ser-^DAla-Ala-)] (HELM PEPTIDE1{A.V.[Dab].Y.[Dab].[Dab].[NCC[C@@H](N[*:1])C(=O)[*:2]].[Dab].W.[Dab].[CC(C)(C)[C@H](N[*:1])C(=O)[*:2]].D.S.[dA]}$PEPTIDE1,PEPTIDE1,3:R3-12:R3|PEPTIDE1,PEPTIDE1,1:R1-14:R2$$$V2.0)	1				

SMILES	Acinetobacter baumannii DSM 30008 MIC ([1]; DSM 30008) [µg/mL]	Escherichia coli ATCC 25922 MIC ([2]; ATCC 25922) [µg/mL]	Klebsiella pneumoniae ATCC 13883 MIC ([3]; ATCC 13883) [µg/mL]	Hemolysis at 100 μg/mL ([4]; red cells of human, 1 h, 100) [%]	Acinetobacter baumannii DSM 30008 MIC [1, 5] [µg/mL]	Escherichia coli ATCC 25922 MIC [2, 5] [µg/mL]	Klebsiella pneumoniae ATCC 13883 MIC [3, 5] [µg/mL]	Hemolysis at 100 μg/mL ([4]; 100 μg/mL, 20% hRBC, 1 h at 37° C.) [%]
CC(C)C[C@@H]1NC(=O)[C@H](CCCNC(=N)N)NC(=O)[C@@H](CCN)NC(=O)[C@H]([C@@H](C)O)NC(=O)[C@@H]2CSSC[C@H](NC1=O)C(=O)N[C@@H](Cc1ccc(O)cc1)C(=O)N[C@@H](CC(N)=O)C(=O)N[C@@H](CCCN)C(=O)N[C@H](CCN)C(=O)N[C@@H](CCN)C(=O)N[C@@H](Cc1c[nH]c3ccccc13)C(=O)N[C@@H](CO)C(=O)N[C@@H](Cc1ccc(O)cc1)C(=O)N2 [Example 74, cyclo(-Leu-Cys-Tyr-Asn-Orn-^DDab-Dab-Trp-Ser-Tyr-Cys-Thr-^DDab-Arg-)] (HELM PEPTIDE1{C.T.[NCC[C@@H](N[*:1])C(=O)[*:2]].R.L.C.Y.N.[Orn].[NCC[C@@H](N[*:1])C(=O)[*:2]].[Dab].W.S.Y}$PEPTIDE1,PEPTIDE1,1:R3-6:R3|PEPTIDE1,PEPTIDE1,1:R1-14:R2$$$V2.0)	1.5	4	1	1				
CC(C)C[C@@H]1NC(=O)[C@H](CCCNC(=N)N)NC(=O)[C@@H](C)NC(=O)[C@H](C(C)C)NC(=O)[C@@H]2CSSC[C@H](NC1=O)C(=O)N[C@@H](Cc1ccc(O)cc1)C(=O)N[C@@H](CCN)C(=O)N[C@@H](CCCN)C(=O)N[C@H](CCN)C(=O)N[C@@H](CCN)C(=O)N[C@@H](Cc1c[nH]c3ccccc13)C(=O)N[C@@H](CC(N)=O)C(=O)N[C@@H](Cc1ccc(O)cc1)C(=O)N2 [Example 73, cyclo(-Leu-Cys-Tyr-Dab-Orn-^DDab-Dab-Trp-Asn-Tyr-Cys-Val-^DAla-Arg-)] (HELM PEPTIDE1{C.V.[dA].R.L.C.Y.[Dab].[Orn].[NCC[C@@H](N[*:1])C(=O)[*:2]].[Dab].W.N.Y}$PEPTIDE1,PEPTIDE1,1:R3-6:R3|PEPTIDE1,PEPTIDE1,1:R1-14:R2$$$V2.0)	1.5	0.75	1	1				
CC(C)C[C@@H]1NC(=O)[C@H](CCCNC(=N)N)NC(=O)[C@@H](CCN)NC(=O)[C@H](C(C)C)NC(=O)[C@H](C)NC(=O)[C@H](C(C)C)NC(=O)[C@@H]2CSSC[C@H](NC(=O)[C@H](Cc3ccc(O)cc3)NC(=O)[C@H](CO)NC1=O)C(=O)N[C@@H](CCCN)C(=O)NCC(=O)N[C@@H](CCN)C(=O)N[C@@H](Cc1c[nH]c3ccccc13)C(=O)N2 [Example 40, cyclo(-Leu-Ser-Tyr-Cys-Orn-Gly-Dab-Trp-Cys-Val-Ala-Val-^DDab-Arg-)] (HELM PEPTIDE1{A.V.[NCC[C@@H](N[*:1])C(=O)[*:2]].R.L.S.Y.C.[Orn].G.[Dab].W.C.V}$PEPTIDE1,PEPTIDE1,8:R3-13:R3|PEPTIDE1,PEPTIDE1,1:R1-14:R2$$$V2.0)	4	4	2	4				
CC[C@H](C)[C@@H]1NC(=O)[C@@H]2CCCN2C(=O)[C@@H](CCN)NC(=O)[C@H](CO)NC(=O)[C@@H]2CSSC[C@H](NC1=O)C(=O)N[C@@H](Cc1ccc(O)cc1)C(=O)N[C@@H](CCN)C(=O)N[C@@H](CCCN)C(=O)N[C@H](CCN)C(=O)N[C@@H](CCN)C(=O)N[C@@H](Cc1c[nH]c3ccccc13)C(=O)N[C@@H](CCN)C(=O)N[C@@H](C(C)(C)C)C(=O)N2 [Example 14, cyclo(-Ile-Cys-Tyr-Dab-Orn-^DDab-Dab-Trp-Dab-tBuGly-Cys-Ser-^DDab-Pro-)] (cyclo(CS[dDab]PICY[Dab][Orn][dDab][Dab]W[Dab][Tle]); disulfide 1-6)	1	0.5	1	1				
